Source: patent US8273762B2, “Hexahydro-pyrrolo-isoquinoline compounds” (Janssen Pharmaceutica NV, priority 2005, dated 2012)

molecular target: T1, cloned human H3 receptor, stably expressed in SK-N-MC cells (Homo sapiens, UniProt Q9Y5N1); test: H3 receptor binding (N-[3H]-α-methylhistamine displacement); conditions: SK-N-MC membranes, 0.8 nM N-[3H]-α-methylhistamine
T1 construct: expressed in transfected cells
T1 sequence (Q9Y5N1 whole entry): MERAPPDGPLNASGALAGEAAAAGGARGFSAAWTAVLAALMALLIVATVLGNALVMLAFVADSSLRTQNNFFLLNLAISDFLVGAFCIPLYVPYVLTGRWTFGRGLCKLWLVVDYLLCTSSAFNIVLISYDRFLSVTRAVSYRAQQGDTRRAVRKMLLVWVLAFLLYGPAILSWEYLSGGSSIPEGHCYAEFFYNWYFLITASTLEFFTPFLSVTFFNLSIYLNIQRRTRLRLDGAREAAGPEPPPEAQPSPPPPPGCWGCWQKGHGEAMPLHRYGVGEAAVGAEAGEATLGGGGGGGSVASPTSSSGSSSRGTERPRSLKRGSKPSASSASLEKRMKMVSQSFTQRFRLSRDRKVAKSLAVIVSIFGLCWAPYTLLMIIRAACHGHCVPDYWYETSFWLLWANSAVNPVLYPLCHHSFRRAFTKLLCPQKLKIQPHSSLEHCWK

| Ki | Structure (SMILES) |
| --- | --- |
| 0.3 nM | c1cc([C@H]2CN3CCC[C@H]3c3cc(OCCCN4CCCCC4)ccc32)ccn1 (relative stereo) [Example 27B, Trans-9-(3-Piperidin-1-yl-propoxy)-6-pyridin-4-yl-1,2,3,5,6,10b-hexahydro-pyrrolo[2,1-a]isoquinoline] |
| 76 nM | Clc1ccc([C@H]2CN3CCC[C@H]3c3cccc(OCCCN4CCCCC4)c32)cc1Cl (relative stereo) [Example 6C] |
| 4 nM | c1cnc([C@@H]2CN3CCC[C@H]3c3cc(OCCCN4CCOCC4)ccc32)cn1 (relative stereo) [Example 50A, Cis-9-(3-Morpholin-4-yl-propoxy)-6-pyrazin-2-yl-1,2,3,5,6,10b-hexahydro-pyrrolo[2,1-a]isoquinoline] |
| 1 nM | Cc1ccc([C@@H]2CN3CCC[C@H]3c3cc(OCCCN4CCCCC4)ccc32)cc1 (relative stereo) [Example 5B, Trans-9-(3-Piperidine-1-yl-propoxy)-6-p-tolyl-1,2,3,5,6,10b-hexahydro-pyrrolo[2,1-a]isoquinoline] |
| 5 nM | c1cn(-c2ccc([C@H]3CN4CCC[C@H]4c4cc(OCCCN5CCOCC5)ccc43)cc2)cn1 (relative stereo) [Example 48B, Trans-6-(4-Imidazol-1-yl-phenyl)-9-(3-morpholin-4-yl-propoxy)-1,2,3,5,6,10b-hexahydro-pyrrolo[2,1-a]isoquinoline] |
| 6 nM | FC(F)(F)Sc1cccc([C@H]2CN3CCC[C@H]3c3cc(OCCCN4CCOCC4)ccc32)c1 (relative stereo) [Example 62] |
| 1 nM | Clc1ccc([C@H]2CN3CCC[C@H]3c3cc(OCCCN4CCCCC4)ccc32)cc1Cl (relative stereo) [Example 6B, Trans-6-(3,4-Dichloro-phenyl)-9-(3-piperidin-1-yl-propoxy)-1,2,3,5,6,10b-hexahydro-pyrrolo[2,1-a]isoquinoline] |
| 3 nM | c1csc([C@H]2CN3CCC[C@H]3c3cc(OCCCN4CCOCC4)ccc32)n1 (relative stereo) [Example 53] |
| 3 nM | COc1ccc([C@H]2CN3CCC[C@H]3c3cc(OCCCN4CCOCC4)ccc32)cc1Cl (relative stereo) [Example 64] |
| 2 nM | c1ccn2c([C@H]3CN4CCC[C@H]4c4cc(OCCCN5CCOCC5)ccc43)cnc2c1 (relative stereo) [Example 55] |
| 16 nM | CSc1ccc([C@H]2CN3CCC[C@H]3c3cc(OCCCN4CCOCC4)ccc32)cc1 (relative stereo) [Example 63] |
| 30 nM | N#Cc1ccc([C@H]2CN3CCC[C@H]3c3ccc(OCCCN4CCCCC4)cc32)cc1 (relative stereo) [Example 43] |
| 1 nM | c1cc([C@@H]2CN3CCC[C@H]3c3cc(OCCCN4CCCCC4)ccc32)ccn1 (relative stereo) [Example 27A, Cis-9-(3-Piperidin-1-yl-propoxy)-6-pyridin-4-yl-1,2,3,5,6,10b-hexahydro-pyrrolo[2,1-a]isoquinoline] |
| 74 nM | Clc1ccccc1[C@H]1CN2CCC[C@H]2c2cccc(OCCCN3CCCCC3)c21 (relative stereo) [Example 12D, Trans-6-(2-Chloro-phenyl)-7-(3-piperidin-1-yl-propoxy)-1,2,3,5,6,10b-hexahydro-pyrrolo[2,1-a]isoquinoline] |
| 1 nM | Clc1ccc([C@H]2CN3CCC[C@H]3c3cc(OCCCN4CCCCC4)ccc32)cc1 (relative stereo) [Example 66B, Trans-6-(4-chloro-phenyl)-9-(3-piperidin-1-yl-propoxy)-1,2,3,5,6,10b-hexahydro-pyrrolo[2,1-a]isoquinoline] |
| 16 nM | c1ccc([C@H]2CN3CCC[C@H]3c3ccc(OCCCN4CCCCC4)cc32)cc1 (relative stereo) [Example 45] |
| 1 nM | CSc1ccc([C@@H]2CN3CCC[C@H]3c3cc(OCCCN4CCCCC4)ccc32)cc1 (relative stereo) [Example 39B, Trans-6-(4-Methylsulfanyl-phenyl)-9-(3-piperidin-1-yl-propoxy)-1,2,3,5,6,10b-hexahydro-pyrrolo[2,1-a]isoquinoline] |

| Ki | Structure (SMILES) |
| --- | --- |
| 5 nM | Oc1ccc([C@H]2CN3CCC[C@H]3c3cc(OCCCN4CCOCC4)ccc32)cn1 (relative stereo) [Example 51B, Trans-5-[9-(3-Morpholin-4-yl-propoxy)-1,2,3,5,6,10b-hexahydro-pyrrolo[2,1-a]isoquinolin-6-yl]-pyridin-2-ol] |
| 3 nM | c1ccc([C@H]2CN3CCC[C@H]3c3cc(OCCCN4CCOCC4)ccc32)nc1 (relative stereo) [Example 60] |
| 29 nM | O=[N+]([O-])c1ccc([C@@H]2CN3CCC[C@H]3c3cccc(OCCCN4CCCCC4)c32)cc1 (relative stereo) [Example 2C, Trans-6-(4-Nitro-phenyl)-7-(3-piperidin-1-yl-propoxy)-1,2,3,5,6,10b-hexahydro-pyrrolo[2,1-a]isoquinoline] |
| 5 nM | c1cnn(-c2ccc([C@H]3CN4CCC[C@H]4c4cc(OCCCN5CCOCC5)ccc43)cc2)c1 (relative stereo) [Example 49] |
| 6 nM | c1cn(-c2ccc([C@@H]3CN4CCC[C@H]4c4cc(OCCCN5CCOCC5)ccc43)cc2)cn1 (relative stereo) [Example 48A, Cis-6-(4-Imidazol-1-yl-phenyl)-9-(3-morpholin-4-yl-propoxy)-1,2,3,5,6,10b-hexahydro-pyrrolo[2,1-a]isoquinoline] |
| 2 nM | N#Cc1cccc([C@H]2CN3CCC[C@H]3c3cc(OCCCN4CCOCC4)ccc32)c1 (relative stereo) [Example 58] |
| 3 nM | Oc1ccc([C@@H]2CN3CCC[C@H]3c3cc(OCCCN4CCOCC4)ccc32)cn1 (relative stereo) [Example 51A, Cis-5-[9-(3-Morpholin-4-yl-propoxy)-1,2,3,5,6,10b-hexahydro-pyrrolo[2,1-a]isoquinolin-6-yl]-pyridin-2-ol] |
| 29 nM | FC(F)(F)Sc1ccc([C@H]2CN3CCC[C@H]3c3cc(OCCCN4CCOCC4)ccc32)cc1 (relative stereo) [Example 61] |
| 181 nM | c1cnc([C@H]2CN3CCC[C@H]3c3cc(OCCCN4CCOCC4)ccc32)cn1 (relative stereo) [Example 50B, Trans-9-(3-Morpholin-4-yl-propoxy)-6-pyrazin-2-yl-1,2,3,5,6,10b-hexahydro-pyrrolo[2,1-a]isoquinoline] |
| 4 nM | c1cc([C@H]2CN3CCC[C@H]3c3cc(OCCCN4CCOCC4)ccc32)[nH]n1 (relative stereo) [Example 54] |
| 98 nM | O=[N+]([O-])c1cccc([C@H]2CN3CCC[C@H]3c3cccc(OCCCN4CCCCC4)c32)c1 (relative stereo) [Example 4C, Cis-6-(3-Nitro-phenyl)-7-(3-piperidin-1-yl-propoxy)-1,2,3,5,6,10b-hexahydro-pyrrolo[2,1-a]isoquinoline] |
| 1 nM | c1ccc([C@@H]2CN3CCC[C@H]3c3ccc(OCCCN4CCCCC4)cc32)cc1 (relative stereo) [Example 44] |
| 2 nM | c1cncc([C@H]2CN3CCC[C@H]3c3cc(OCCCN4CCOCC4)ccc32)c1 (relative stereo) [Example 59] |
| 3 nM | c1cc([C@H]2CN3CCC[C@H]3c3cc(OCCCN4CCOCC4)ccc32)cs1 (relative stereo) [Example 56] |
| 5 nM | COc1ccc([C@@H]2CN3CCC[C@H]3c3cc(OCCCN4CCOCC4)ccc32)cc1 (racemic) [Example 93] |
| 200 nM | Fc1ccc([C@@H]2CN3CCC[C@H]3c3cccc(OCCCN4CCCCC4)c32)cc1 (relative stereo) [Example 14C] |
